Assay results from US11771709B2, “ALK protein degradation agent and anti-tumor application thereof” (ShanghaiTech University, priority 2017, dated 2023).
Where two headings read alike, the source gives them in different places. Values belong to the compound of their own block, whether it stands above or below them.

Columns and labels:
[1] = tested on: NCI-H3122 (EML4-ALK, V1) cells; test: Growth inhibition IC50 in lung cancer H3122 cells (Cell Titer Blue / Cell Titer Glo)
[2] = tested on: SR (NPM-ALK) cells; test: Growth inhibition IC50 in ALCL SR cells (CCK8/WST, 72 hours); type: cell-based; settings: SR cells, WST
[3] = biological target: T1, ALK protein in H3122 cells (Homo sapiens, UniProt Q9UM73); test: ALK protein stability after stopping translation with cycloheximide in H3122 cells; type: cell-based; settings: 0.5 uM compound, 1 ug/ml cycloheximide, 12 hours (Ceritinib), 7 hours (SIAIS074017)
T1 construct: EML4 (Echinoderm microtubule-associated protein-like 4, Q9HC35) fusion partner, variant 1; host or cells: NCI-H3122 lung adenocarcinoma cells; the other entry of the earlier key: EML4 (Q9HC35, Echinoderm microtubule-associated protein-like 4)
Experimental: The mechanism of PROTAD compound to degrade its target protein acts through recruiting E3 ubiquitining ligase to the proximity of its target protein, which leads to the target protein being highly ubiquitinzed and eventually being degraded. In order to see the mechanism of ALK PROTAD compounds we developed, we firstly examined the half-life of ALK protein. Because the total level of ALK protein was determined by both the translational activity and protein degradation, we used cyclohexmide to stop protein translation to examine the effect of ALK PROTAD compounds on ALK protein stabilities.
We listed data for Ceritinib-based ALK PROTAD compounds here as an example, and data for other ALK PROTAD compounds were tested in the same way and similar results were found. […] The difference at the total ALK protein level will reflect the different influence of drugs on protein stability.

[4] = tested on: ALK positive non-small cell lung cancer; settings: second line treatment (Shaw et al., 2017); cited from earlier work
[5] = biological target: T2, ALK protein in H3122 (EML4-ALK) cells (Homo sapiens, UniProt Q9UM73); test: Western blot of ALK protein level (degradation, DC50), ALK phosphorylation and downstream signaling in H3122 cells; type: cell-based; settings: for ALK protein level / degradation: H3122 cells, western blot, up to 500 nM; for DC50: ALK protein degradation in H3122 cells
T2 construct: EML4 (Echinoderm microtubule-associated protein-like 4, Q9HC35) fusion partner, variant 1; host or cells: NCI-H3122 lung adenocarcinoma cells; the other entry of the earlier key: EML4 (Q9HC35, Echinoderm microtubule-associated protein-like 4)

[6] = tested on: ALK protein in H2228 (EML4-ALK) cells; test: Western blot of ALK protein level, ALK phosphorylation and downstream signaling in H2228 cells; type: cell-based
Experimental: Cancer cells were seeded in 1 ml RPMI1640 medium in 24-well plate at the density of 3×10^5 or 1.5×10^5 cells/ml. The next day cells were treated with different concentration of drugs for 16 hours. Then cells were washed twice with PBS and lyzed in RIPA lysis buffer with Halt Proteinase and Phosphotase inhibitor. Equal amount of proteins were loaded to run SDS-PAGE gels after denature. The gels were blotted to PVDF membrane. After incubating with first and secondary antibodies, the images were developed using SuperSignal West Pico Chemiluminescent Substrate.
The effect of Brigtinib based PROTAD molecules on the ALK protein total level were studied by western blot in ALCL SR (NPM-ALK) cell line and lung adenocarcinoma cell line H2228 and H3122 (EML4-ALK).
The effects of compounds SIAIS164008 and SIAIS164018 of the present invention on the activation of ALK mediated signaling pathways were also studied in SR cells and H2228 cells. […] The overall effect of compound of SIAIS164018 was better than that of SIAIS164008.

[7] = tested on: SW48 cell line (EGFR G719S); test: Growth inhibition IC50 in EGFR G719S colorectal cancer cell line SW48; type: cell-based; settings: Homo sapiens, CTG, n = 2, read-out: Half Inhibitory Concentration (IC50) Mean
[8] = Pharmacokinetics (PK) study in SD rat (IV, IP, PO; LC-MS/MS); type: in vivo; settings: Sprague-Dawley, serum
Experimental: SD rat were used to study the PK of ALK PROTAD compounds. ALK PROTAD compounds SIAIS164008, SIAIS164018, SIAIS164023 and SIAIS151118 were administrated into SD rat via three different routes: IV (Intravenous Injection), IP (Intraperitoneal Injection) and PO ([…]). Blood samples at different sampling time points up to 24 hours post dosing were collected from each animal and analyzed with LC-MS/MS to calculate the PK for each chemical.

[9] = biological target: T3, Ba/F3 (EML4-ALK/L1196M) (Homo sapiens, UniProt Q9UM73, L1196M, cells depend on it); test: Growth inhibition IC50 in Ba/F3 cells expressing EML4-ALK L1196M; type: cell-based
T3 construct: Q9HC35 (Echinoderm microtubule-associated protein-like 4)

[10] = tested on: H2228 cells (EML4-ALK); test: Colony formation assay in H2228 cells; type: cell-based; settings: about 2 weeks
Experimental: (§1) Cell were digested to become single cell suspension. Cells were seeded in the intensity of 250 cells/well in 12 well plate. Treated cells at the concentration of 100, 250, 500 nM. Fixed cells 2-3 weeks after and stained cells with crystyl violate.
In order to see the effect of ALK PROTAD compounds on the colony formation ability of cancer cells, EML4-ALK mutant lung cancer cells H2228 were firstly seeded in 12 well plate at the density of 200 cells per well. Cells were treated with different ALK PROTAD compounds at different concentration for about 2 weeks.

[11] = tested on: MOLM13 cells (FLT3-ITD); test: Growth inhibition IC50 in FLT3-ITD AML cell line MOLM13; type: cell-based; settings: Homo sapiens, MOLM-13, MOLM13 cells
[12] = biological target: T4, ALK protein in SR cells (Homo sapiens, UniProt Q9UM73); test: Block of ALK degradation by proteosome inhibitors MG132 and MLN4924 in SR cells; type: cell-based
T4 construct: NPM (nucleophosmin, NPM1, P06748) fusion partner; host or cells: SR (ALCL) cells; the other entry of the earlier key: NPM1 (P06748, Nucleophosmin)
From the text: To further validate the degradation effect act through proteosome mediated pathway, we also treated cells with two different proteosome inhibitors MG132 and MLN4924 to block protein degradation (FIG. 16).

[13] = tested on: PC9 (EGFR, exon 19 del) cells; test: Growth inhibition IC50 in EGFR mutant lung adenocarcinoma PC9 cells; type: cell-based; settings: Homo sapiens, PC-9; PC9 cells, CTB, n ≥ 3; read-out: Half Inhibitory Concentration (IC50) Mean
[14] = tested on: U118MG cells (FIG-ROS1 gene fusion); test: Growth inhibition IC50 in ROS1 mutant glioblastoma cell line U118MG (72 hours); type: cell-based; settings: Homo sapiens, U-118-MG; U118MG cells, 72 hours, n = 2, reagent CTG; read-out: Half Inhibitory Concentration (IC50) Mean
[15] = biological target: T5, Ba/F3 (EML4-ALK/C1156Y) (Homo sapiens, UniProt Q9UM73, C1156Y, cells depend on it); test: Growth inhibition IC50 in Ba/F3 cells expressing EML4-ALK C1156Y; type: cell-based
T5 construct: Q9HC35 (Echinoderm microtubule-associated protein-like 4)

[16] = tested on: NCI-H2228 (EML4-ALK, V3) cells; test: Growth inhibition IC50 in lung adenocarcinoma H2228 cells (WST); type: cell-based; settings: Homo sapiens, WST (Table 3)
From the text: Experiments were repeated at least three times.
Besides above, we also tested the dosage-dependent effects on the growth inhibition in H2228 cells. […] (Table 3).

[17] = biological target: T6, Ba/F3 (EML4-ALK/WT) (Homo sapiens, UniProt Q9UM73); test: Growth inhibition IC50 in Ba/F3 cells expressing EML4-ALK wild type; type: cell-based
T6 construct: Q9HC35 (Echinoderm microtubule-associated protein-like 4)

[18] = biological target: T7, ALK protein in SR (NPM-ALK) cells (Homo sapiens, UniProt Q9UM73); test: Western blot of ALK protein level (degradation, DC50), ALK phosphorylation and downstream signaling in SR cells; type: cell-based
T7 construct: NPM (nucleophosmin, NPM1, P06748) fusion partner; host or cells: SR (ALCL) cells; the other entry of the earlier key: NPM1 (P06748, Nucleophosmin)

[19] = tested on: PC9Brc1 (EGFR, exon 19 del+T790M) cells; test: Growth inhibition IC50 in EGFR mutant lung cancer PC9Brc1 cells; type: cell-based; settings: CTB, n ≥ 3, read-out: Half Inhibitory Concentration (IC50) Mean
[20] = tested on: PC9Brc1 cells; test: Colony formation assay in PC9Brc1 cells; type: cell-based; settings: PC9 Brc1 cells
Experimental: as §1
ALK PROTAD compound SIAIS1210117 and its negative control epimer SIAIS219050 were used.

[21] = Ceritinib based ALK PROTAD compounds (Table 5)

IC50 ([1]; H3122 cells, CTB (Cell Titer Blue)): 14 nM | IC50 ([1]; H3122 cells, CTG (Cell Titer Glo)): 44 nM | ALK protein level after stop of translation (protein stability) [3]: did not show much difference | ALK protein level / degradation [5]: did not affect ALK protein level
Structure (SMILES): Cc1cc(Nc2ncc(Cl)c(Nc3ccccc3S(=O)(=O)C(C)C)n2)c(OC(C)C)cc1C1CCNCC1 [Ceritinib, reference compound]
IC50 [2, 21]: 16 nM | increase of progression free survival comparing to second line chemotherapy [4]: about 4 months

IC50 ([1]; Homo sapiens, NCI-H3122, H3122 cells, CTB (Cell Titer Blue)): 45 nM | IC50 ([1]; Homo sapiens, NCI-H3122, H3122 cells, CTG (Cell Titer Glo)): 41 nM | ALK protein level after stop of translation (protein stability) [3]: significantly reduced ALK protein level | DC50 [5]: 100 to 500 nM
Structure (SMILES): Cc1cc(Nc2ncc(Cl)c(Nc3ccccc3S(=O)(=O)C(C)C)n2)c(OC(C)C)cc1C1CCN(C(=O)CCC(=O)N[C@H](C(=O)N2C[C@H](O)C[C@H]2C(=O)NCc2ccc(-c3scnc3C)cc2)C(C)(C)C)CC1 [SIAIS074017, (2S,4R)-1-((S)-2-(4-(4-(4-((5-chloro-4-((2-(isopropylsulfonyl)phenyl)amino)pyrimidin-2-yl)amino)-5-isopropoxy-2-methylphenyl)piperidin-1-yl)-4-oxobutanamido)-3,3-dimethylbutanoyl)-4-hydroxy-N-(4-(4-methylthiazol-5-yl)benzyl)pyrrolidine-2-carboxamide]
IC50 [2, 21]: 116 nM

IC50 [7]: 2760 nM | bioavailability ([8]; IP, 2 mg/kg): 157% | half-life ([8]; IP, 2 mg/kg, read-out: serum half-life (converted)): 3.65 h | Tmax ([8]; IP, 2 mg/kg, read-out: time to maximal serum peak level (Tmax)): ~2.67 h | clearance ([8]; IV, single dose 2 mg/kg, read-out: clearance rate, mean value): ~22.6 mL/min/kg | half-life ([8]; IV, single dose 2 mg/kg, read-out: serum clearance half-life (converted)): ~4.65 h | bioavailability ([8]; PO, 10 mg/kg): 18.4% | Tmax ([8]; PO, 10 mg/kg, read-out: Tmax): 2 h | half-life ([8]; PO, 10 mg/kg, read-out: serum half-life (converted)): 7.09 h | GI50 [9]: 57.4 nM | DC50 [5]: 1 to 10 nM | ALK protein level / degradation [5]: a similar effects was observed | IC50 ([11]; n = 2, reagent CTG, read-out: Half Inhibitory Concentration (IC50) Mean): 79 nM | IC50 ([11]; read-out: IC50): 79 nM | reduction of ALK protein level and its block by MG132 and MLN4924 [12]: able to be blocked | IC50 [13]: 150 nM | IC50 [14]: 16900 nM | GI50 [15]: 42.7 nM | IC50 [16]: 17.9 nM | GI50 [17]: 30.9 nM | DC50 ([18]; ALK protein degradation in SR cells): 0.5 to 1 nM | concentration at which ALK proteins were degraded ([18]; SR cells, western blot): less than 1 nM | concentration inhibiting the phosphorylation of ALK proteins ([18]; SR cells, western blot): 0.1 nM | downstream signaling pathway (PI3K/AKT, MEK/ERK and STAT3) ([18]; SR cells, western blot): significantly inhibited | IC50 [19]: 900 nM
Structure (SMILES): COc1cc(N2CCC(N3CCN(C(=O)CNc4cccc5c4C(=O)N(C4CCC(=O)NC4=O)C5=O)CC3)CC2)ccc1Nc1ncc(Cl)c(Nc2ccccc2P(C)(C)=O)n1 (stereo not shown) [SIAIS164018, 4-((2-(4-(1-(4-((5-chloro-4-((2-(dimethylphosphoryl)phenyl)amino)pyrimidin-2-yl)amino)-3-methoxyphenyl)piperidin-4-yl)piperazin-1-yl)-2-oxoethyl)amino)-2-(2,6-dioxopiperidin-3-yl)isoindoline-1,3-dione]
phosphorylation of ALK protein and activation of PI3K/AKT pathway [6]: inhibited | IC50 ([2]; 72 h, Brigatinib-based PROTAD molecules (Table 3)): 2 ± 1.4 nM | colony formation [10]: dramatically inhibited | ALK protein degradation ([18]; SR cells, western blot, 16 hours, up to 500 nM): effectively degrade ALK proteins at nano mole concentration

reduction of ALK protein level and its block by MG132 and MLN4924 [12]: did not have such effect
Structure (SMILES): COc1cc(N2CCC(NC(=O)CCCCCCCCCC(=O)N[C@H](C(=O)N3C[C@@H](O)C[C@H]3C(=O)NCc3ccc(-c4scnc4C)cc3)C(C)(C)C)CC2)ccc1Nc1ncc(Cl)c(Nc2ccccc2P(C)(C)=O)n1 [SIAIS219050, N1-(1-(4-((5-chloro-4-((2-(dimethylphosphoryl)phenyl)amino)pyrimidin-2-yl)amino)-3-methoxyphenyl)piperidin-4-yl)-N11-((S)-1-((2S,4S)-4-hydroxy-2-((4-(4-methylthiazol-5-yl)benzyl)carbamoyl)pyrrolidin-1-yl)-3,3-dimethyl-1-oxobutan-2-yl)undecanediamide]
colony formation [20]: could not | ALK protein degradation within a time course ([18]; SR cells, 100 nM, 4 hours (SIAIS1210117), up to 24 hours (epimer)): did not induce degradation of ALK protein
